Results from patent US5210193A, “Piperazine derivatives” (American Cyanamid Company, priority 1990, dated 1993).
≈ marks a conversion by molar mass, not a printed value. Like-named read-outs stand apart in the source and are kept apart here.

Columns and labels:
Assay in all cases: in vitro antibacterial MIC, agar plate dilution
Type in all cases: cell-based
[1] = system: Staphylococcus epidermidis CMC 83-135; settings: 35° C.
Procedure, shortened: (§1)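 Minimal inhibitory concentrations came from agar plate dilution in Mueller-Hinton medium. Each organism was delivered at roughly 10^4 CFU by Steers replicator. Plates were read for visible growth after 18 hours at 35° C, values in mcg/ml.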

[2] = system: Escherichia coli CMC 84-11; settings: 35° C.
Procedure, shortened: as §1

[3] = system: Staphylococcus aureus Smith; settings: 35° C.
Procedure, shortened: as §1

[4] = system: Morganella morganii CMC 84-37; settings: 35° C.
Procedure, shortened: as §1

[5] = system: Escherichia coli ATCC 25922; settings: 35° C.
Procedure, shortened: as §1

Klebsiella pneumoniae AD = settings: 35° C.
Procedure, shortened: as §1

[6] = system: Streptococcus faecalis ATTC 29212; settings: 35° C.
Procedure, shortened: as §1

[7] = system: Staphylococcus aureus VGH 84-45; settings: 35° C.
Procedure, shortened: as §1

[8] = system: Enterobacter cloacae K 84-10; settings: 35° C.
Procedure, shortened: as §1

[9] = system: Escherichia coli CMC 84-16; settings: 35° C.
Procedure, shortened: as §1

[10] = system: Staphylococcus Spp saprophiticus VGH 84-50; settings: 18 hours, 35° C.
Procedure, shortened: as §1

[11] = system: Staphylococcus aureus CMC 83-128; settings: 35° C.
Procedure, shortened: as §1

[12] = system: Morganella morganii VGH 84-11; settings: 35° C.
Procedure, shortened: as §1

[13] = system: Enterobacter aerogenes VGH 84-36; settings: 35° C.
Procedure, shortened: as §1

[14] = system: Staphylococcus aureus CMC 83-127; settings: 35° C.
Procedure, shortened: as §1

[15] = system: Escherichia coli PRNT 311; settings: 35° C.
Procedure, shortened: as §1

[16] = system: Staphylococcus epidermidis IO 83-58; settings: 35° C.
Procedure, shortened: as §1

[17] = system: Serratia marcescens K 84-18; settings: 35° C.
Procedure, shortened: as §1

[18] = system: Klebsiella oxytoca MOR 84-28; settings: MOR8428, 18 hours, 35° C.
Procedure, shortened: as §1

[19] = system: Pseudomonas aeruginosa VGH 84-4; settings: 35° C.
Procedure, shortened: as §1

[20] = system: Serratia marcescens F 0-35; settings: 35° C.
Procedure, shortened: as §1

[21] = system: Klebsiella pneumoniae MOR 84-4; settings: 35° C.
Procedure, shortened: as §1

[22] = system: Acinetobacter calcoaceticus MOR 84-43; settings: 35° C.
Procedure, shortened: as §1

[23] = system: Streptococcus faecalis VGH 84-65; settings: 35° C.
Procedure, shortened: as §1

[24] = system: Proteus rettgeri CMC 84-41; settings: 35° C.
Procedure, shortened: as §1

[25] = system: Enterobacter cloacae VGH 84-37; settings: 35° C.
Procedure, shortened: as §1

[26] = system: Pseudomonas aeruginosa LL-1244; settings: 35° C.
Procedure, shortened: as §1

Escherichia coli NAR 311 = settings: 35° C.
Procedure, shortened: as §1

[27] = system: Staphylococcus aureus ATTC 29213; settings: 35° C.
Procedure, shortened: as §1

[28] = system: Staphylococcus epidermidis VGH 84-40; settings: 18 hours, 35° C.
Procedure, shortened: as §1

[29] = system: Staphylococcus aureus VGH 84-46; settings: 18 hours, 35° C.
Procedure, shortened: as §1

For CCn1cc(C(=O)O)c(=O)c2c(F)c(F)c(N3CCSCC3)c(F)c21 [Example 89, 1-Ethyl-5,6,8-trifluoro-1,4-dihydro-4-oxo-7-(4-thiomorpholinyl)-3-quinolinecarboxylic acid], the MIC ([1]; CMC83135, 18 hours, read-out: MIC) was 0.5 µg/mL (≈ 1.34 µM), the MIC ([2]; Escherichia coli, CMC8411, 18 h, read-out: MIC) was 1 µg/mL (≈ 2.69 µM) and the MIC ([3]; Staphylococcus aureus, 18 h, read-out: MIC) was 0.25 µg/mL (≈ 0.671 µM). It also gave an MIC ([4]; Morganella morganii, CMC8437, 18 h, read-out: MIC) of 4 µg/mL (≈ 10.7 µM), an MIC ([5]; Escherichia coli, ATCC25922, 18 h, read-out: MIC) of 1 µg/mL (≈ 2.69 µM) and an MIC (Klebsiella pneumoniae AD; Klebsiella pneumoniae, 18 h, read-out: MIC) of 2 µg/mL (≈ 5.37 µM). For the same molecule, the MIC ([6]; Enterococcus faecalis, ATTC29212, 18 hours, read-out: MIC) was 8 µg/mL (≈ 21.5 µM), the MIC ([7]; Staphylococcus aureus, VGH8445, 18 h, read-out: MIC) was 0.25 µg/mL (≈ 0.671 µM) and the MIC ([8]; Enterobacter cloacae, K8410, 18 h, read-out: MIC) was 2 µg/mL (≈ 5.37 µM). It also gave an MIC ([9]; Escherichia coli, CMC8416, 18 h, read-out: MIC) of 2 µg/mL (≈ 5.37 µM), an MIC ([10]; read-out: MIC) of 4 µg/mL (≈ 10.7 µM) and an MIC ([11]; CMC83128, 18 hours, read-out: MIC) of 1 µg/mL (≈ 2.69 µM). The MIC ([12]; VGH8411, 18 hours, read-out: MIC) was 2 µg/mL (≈ 5.37 µM), the MIC ([13]; Klebsiella aerogenes, VGH8436, 18 hours, read-out: MIC) was 8 µg/mL (≈ 21.5 µM) and the MIC ([14]; Staphylococcus aureus, CMC83127, 18 h, read-out: MIC) was 0.5 µg/mL (≈ 1.34 µM). It also gave an MIC ([15]; PRNT311, 18 hours, read-out: MIC) of 2 µg/mL (≈ 5.37 µM), an MIC ([16]; IO8358, 18 hours, read-out: MIC) of 0.5 µg/mL (≈ 1.34 µM) and an MIC ([17]; Serratia marcescens, K8418, 18 h, read-out: MIC) of 2 µg/mL (≈ 5.37 µM). The MIC [18] was 2 µg/mL (≈ 5.37 µM), the MIC ([19]; Pseudomonas aeruginosa, VGH844, 18 h, read-out: MIC) was 32 µg/mL (≈ 85.9 µM) and the MIC ([20]; Serratia marcescens, F035, 18 h, read-out: MIC) was 2 µg/mL (≈ 5.37 µM). For the same molecule, the MIC ([21]; Klebsiella pneumoniae, MOR844, 18 h, read-out: MIC) was 4 µg/mL (≈ 10.7 µM), the MIC ([22]; MOR8443, 18 hours, read-out: MIC) was 2 µg/mL (≈ 5.37 µM) and the MIC ([23]; Enterococcus faecalis, VGH8465, 18 h, read-out: MIC) was 32 µg/mL (≈ 85.9 µM). For the same molecule, the MIC ([24]; Providencia rettgeri, CMC8441, 18 h, read-out: MIC) was 4 µg/mL (≈ 10.7 µM), the MIC ([25]; Enterobacter cloacae, VGH8437, 18 h, read-out: MIC) was 4 µg/mL (≈ 10.7 µM) and the MIC ([26]; Pseudomonas aeruginosa, LL1244, 18 h, read-out: MIC) was 64 µg/mL (≈ 172 µM). The MIC (Escherichia coli NAR 311; NAR311, 18 hours, read-out: MIC) was 128 µg/mL (≈ 344 µM) and the MIC ([27]; Staphylococcus aureus, ATTC29213, 18 h, read-out: MIC) was 0.5 µg/mL (≈ 1.34 µM).
Work on CCn1cc(C(=O)O)c(=O)c2cc(F)c(N3CCNC(CF)C3)c(F)c21 (single isomer, unassigned; (+)) [Example 65, (+)-N-Ethyl-6,8-difluoro-7-[3-(fluoromethyl)-1-piperazinyl]-1,4-dihydro-4-oxo-3-quinolinecarboxylic acid] yielded an MIC ([1]; 18 hours) of 0.25 µg/mL (≈ 0.677 µM), an MIC ([2]; 18 hours) of 0.06 µg/mL (≈ 0.162 µM) and an MIC ([3]; 18 hours) of 0.25 µg/mL (≈ 0.677 µM). The MIC ([4]; 18 hours) was 0.12 µg/mL (≈ 0.325 µM), the MIC ([5]; 18 hours) was 0.06 µg/mL (≈ 0.162 µM) and the MIC (Klebsiella pneumoniae AD; 18 hours) was 0.12 µg/mL (≈ 0.325 µM). It also gave an MIC ([6]; 18 hours) of 4 µg/mL (≈ 10.8 µM), an MIC ([7]; 18 hours) of 0.12 µg/mL (≈ 0.325 µM) and an MIC ([8]; 18 hours) of 0.06 µg/mL (≈ 0.162 µM). It also gave an MIC ([9]; 18 hours) of 0.06 µg/mL (≈ 0.162 µM), an MIC [10] of 1 µg/mL (≈ 2.71 µM) and an MIC ([11]; 18 hours) of 0.25 µg/mL (≈ 0.677 µM). For the same molecule, the MIC ([12]; 18 hours) was 0.12 µg/mL (≈ 0.325 µM), the MIC ([13]; 18 hours) was 0.12 µg/mL (≈ 0.325 µM) and the MIC ([14]; 18 hours) was 0.12 µg/mL (≈ 0.325 µM). It also gave an MIC ([15]; 18 hours) of 0.06 µg/mL (≈ 0.162 µM), an MIC ([16]; 18 hours) of 0.25 µg/mL (≈ 0.677 µM) and an MIC ([17]; 18 hours) of 0.25 µg/mL (≈ 0.677 µM). The MIC ([19]; 18 hours) was 1 µg/mL (≈ 2.71 µM), the MIC ([20]; 18 hours) was 0.25 µg/mL (≈ 0.677 µM) and the MIC ([21]; 18 hours) was 0.12 µg/mL (≈ 0.325 µM). It also gave an MIC ([22]; 18 hours) of 0.5 µg/mL (≈ 1.35 µM), an MIC ([23]; 18 hours) of 4 µg/mL (≈ 10.8 µM) and an MIC ([24]; 18 hours) of 0.25 µg/mL (≈ 0.677 µM). The MIC ([25]; 18 hours) was 0.12 µg/mL (≈ 0.325 µM), the MIC ([26]; 18 hours) was 8 µg/mL (≈ 21.7 µM) and the MIC (Escherichia coli NAR 311; 18 hours) was 1 µg/mL (≈ 2.71 µM). It also gave an MIC [28] of 0.25 µg/mL (≈ 0.677 µM), an MIC [29] of 0.25 µg/mL (≈ 0.677 µM) and an MIC ([27]; 18 hours) of 0.25 µg/mL (≈ 0.677 µM).
